# In patent US10294202B2, “Pyrrolidinones as herbicides” (FMC Corporation, priority 2013, dated 2019):
# Tests used:
# [1] = tested on: blackgrass; test: Test A postemergence herbicide test; format: in vivo, Alopecurus myosuroides
# Procedure, shortened: (§1)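 Potted in loam soil/sand blend; postemergence application at 1–2 leaf stage (2–10 cm). Greenhouse ~10 d. Visual injury vs untreated, 0–100 scale; 100 = complete control.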
# [2] = tested on: rice; test: Test B flooded paddy test; format: in vivo, Oryza sativa; details: Flood, scale of 0 to 100 where 0 is no effect and 100 is complete control
# Procedure, shortened: (§2)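 Plants were grown to the 2-leaf stage, then pots were flooded to 3 cm above the soil and compound was applied directly into the paddy water, with that depth held throughout. After 13 to 15 days in a greenhouse, injury was rated visually against untreated controls on a 0 to 100 scale (100 = complete control).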
# [3] = tested on: wheat; test: Test A pre-/postemergence herbicide test; format: in vivo, Triticum aestivum; details: Postemergence
# Procedure, shortened: (§3)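 Formulated compound (non-phytotoxic solvent, surfactant) sprayed pre- onto soil of seeded loam/sand pots or post- onto seedlings at 1–2 leaves; ~10 d greenhouse; 0–100 visual control rating versus untreated.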
# [4] = tested on: giant foxtail; test: Test A pre-/postemergence herbicide test; format: in vivo, Setaria faberii
# Procedure, shortened: as §3
# [5] = tested on: ragweed; test: Test A pre-/postemergence herbicide test; format: in vivo, Ambrosia elatior
# Procedure, shortened: as §3
# [6] = tested on: corn; test: Test A pre-/postemergence herbicide test; format: in vivo, Zea mays; details: Postemergence
# Procedure, shortened: as §3
# [7] = tested on: galium; test: Test A postemergence herbicide test; format: in vivo, Galium aparine
# Procedure, shortened: as §1
# [8] = tested on: barnyardgrass; test: Test B flooded paddy test; format: in vivo, Echinochloa crus-galli; details: Flood, scale of 0 to 100 where 0 is no effect and 100 is complete control
# Procedure, shortened: as §2
# [9] = tested on: pigweed; test: Test A pre-/postemergence herbicide test; format: in vivo, Amaranthus retroflexus
# Procedure, shortened: as §3
# [10] = tested on: barnyardgrass; test: Test A pre-/postemergence herbicide test; format: in vivo, Echinochloa crus-galli
# Procedure, shortened: as §3
# [11] = tested on: kochia; test: Test A pre-/postemergence herbicide test; format: in vivo, Kochia scoparia
# Procedure, shortened: as §3
# [12] = tested on: ryegrass, Italian; test: Test A pre-/postemergence herbicide test; format: in vivo, Lolium multiflorum
# Procedure, shortened: as §3
# [13] = tested on: ducksalad; test: Test B flooded paddy test; format: in vivo, Heteranthera limosa; details: Flood, scale of 0 to 100 where 0 is no effect and 100 is complete control
# Procedure, shortened: as §2
# [14] = tested on: sedge, umbrella; test: Test B flooded paddy test; format: in vivo, Cyperus difformis; details: Flood, scale of 0 to 100 where 0 is no effect and 100 is complete control
# Procedure, shortened: as §2
# [15] = 125 g ai/ha, 0 to 100 scale, 0 no effect, 100 complete control
# [16] = 500 g ai/ha, 0 to 100 scale (0 no effect, 100 complete control)
# [17] = Postemergence, 125 g ai/ha, 0 to 100 scale, 0 no effect, 100 complete control
# [18] = Postemergence, 500 g ai/ha, 0 to 100 scale (0 no effect, 100 complete control)
# [19] = Preemergence, 125 g ai/ha, visual rating on 0 to 100 scale (0 no effect, 100 complete control)
# [20] = preemergence, 500 g ai/ha, 0 to 100 scale
# [21] = preemergence, 500 g ai/ha, 0 to 100 scale (0 no effect, 100 complete control)
# [22] = 125 g ai/ha, visual rating, 0 to 100 scale, 0 no effect, 100 complete control, approximately 10 days, preemergence
smiles,measurement,setting,value
O=C1NCC(c2cccc(C(F)(F)F)c2)C1C(=O)Nc1ccccn1 (racemic) [Compound 110],"Plant response rating, Blackgrass",[1]; [15],0
same,"Plant response rating, Blackgrass",[1]; [16],70
same,"Plant response rating, Rice",[2]; 1000 g ai/ha,0
same,"Plant response rating, Wheat",[3]; [15],0
same,"Plant response rating, Wheat",[3]; [16],20
same,"Plant response rating, Foxtail, Giant",[4]; [17],80
same,"Plant response rating, Foxtail, Giant",[4]; [18],90
same,"Foxtail, Giant plant response rating",[4]; [19],60
same,"Plant response rating, Foxtail, Giant",[4]; [20],90
same,"Plant response rating, Ragweed",[5]; [17],0
same,"Plant response rating, Ragweed",[5]; [18],0
same,Ragweed plant response rating,[5]; [19],0
same,"Plant response rating, Ragweed",[5]; [20],0
same,"Plant response rating, Corn",[6]; [15],0
same,"Plant response rating, Corn",[6]; [16],20
same,"Plant response rating, Galium",[7]; [15],20
same,"Plant response rating, Galium",[7]; [16],40
same,"Plant response rating, Barnyardgrass",[8]; 1000 g ai/ha,0
same,"Plant response rating, Pigweed",[9]; [17],0
same,"Plant response rating, Pigweed",[9]; [18],0
same,Pigweed plant response rating,[9]; [19],0
same,"Plant response rating, Pigweed",[9]; [20],0
same,"Plant response rating, Barnyardgrass",[10]; [17],50
same,"Plant response rating, Barnyardgrass",[10]; [18],90
same,Barnyardgrass plant response rating,[10]; [19],70
same,"Plant response rating, Barnyardgrass",[10]; [21],90
same,"Plant response rating, Kochia",[11]; [17],0
same,"Plant response rating, Kochia",[11]; [18],0
same,Kochia plant response rating,[11]; [19],0
same,"Plant response rating, Kochia",[11]; [20],0
same,"Plant response rating, Ryegrass, Italian",[12]; [17],20
same,"Plant response rating, Ryegrass, Italian",[12]; [18],40
same,"Ryegrass, Italian plant response rating",[12]; [19],0
same,"Plant response rating, Ryegrass, Italian",[12]; [20],0
same,"Plant response rating, Ducksalad",[13]; 1000 g ai/ha,95
same,"Plant response rating, Sedge, Umbrella",[14]; 1000 g ai/ha,50
O=C1NCC(c2ccc(F)cc2)C1C(=O)Nc1ccccc1OC(F)F (racemic) [Compound 118],"Plant response rating, Blackgrass",[1]; [15],0
same,"Plant response rating, Blackgrass",[1]; [16],0
same,"Plant response rating, Rice",[2]; 500 g ai/ha,0
same,"Plant response rating, Wheat",[3]; [15],0
same,"Wheat plant response rating (0 to 100 scale, 0 is no effect, 100 is complete control)",[3]; 500 g ai/ha,0
same,"Plant response rating, Foxtail, Giant",[4]; [22],90
same,"Plant response rating, Foxtail, Giant",[4]; [17],50
same,"Foxtail, Giant plant response rating (0 to 100 scale, 0 is no effect, 100 is complete control)","[4]; Postemergence, 500 g ai/ha",80
same,"Plant response rating, Foxtail, Giant",[4]; [20],90
same,"Plant response rating, Ragweed",[5]; [22],0
same,"Plant response rating, Ragweed",[5]; [17],0
same,"Ragweed plant response rating (0 to 100 scale, 0 is no effect, 100 is complete control)","[5]; Postemergence, 500 g ai/ha",0
same,"Plant response rating, Ragweed",[5]; [20],0
same,"Plant response rating, Corn",[6]; [15],0
same,"Plant response rating, Corn",[6]; [16],0
same,"Plant response rating, Galium",[7]; [15],50
same,"Galium plant response rating (0 to 100 scale, 0 is no effect, 100 is complete control)",[7]; 500 g ai/ha,60
same,"Plant response rating, Barnyardgrass",[8]; 500 g ai/ha,20
same,"Plant response rating, Pigweed",[9]; [22],0
same,"Plant response rating, Pigweed",[9]; [17],0
same,"Pigweed plant response rating (0 to 100 scale, 0 is no effect, 100 is complete control)","[9]; Postemergence, 500 g ai/ha",0
same,"Plant response rating, Pigweed",[9]; [20],0
same,"Plant response rating, Barnyardgrass",[10]; [22],50
same,"Plant response rating, Barnyardgrass",[10]; [17],0
same,"Plant response rating, Barnyardgrass",[10]; [18],60
same,"Plant response rating, Barnyardgrass",[10]; [21],70
same,"Plant response rating, Kochia",[11]; [22],0
same,"Plant response rating, Kochia",[11]; [17],10
same,"Kochia plant response rating (0 to 100 scale, 0 is no effect, 100 is complete control)","[11]; Postemergence, 500 g ai/ha",50
same,"Plant response rating, Kochia",[11]; [20],0
same,"Plant response rating, Ryegrass, Italian",[12]; [22],0
same,"Plant response rating, Ryegrass, Italian",[12]; [17],0
same,"Ryegrass, Italian plant response rating (0 to 100 scale, 0 is no effect, 100 is complete control)","[12]; Postemergence, 500 g ai/ha",0
same,"Plant response rating, Ryegrass, Italian",[12]; [20],0
same,"Plant response rating, Ducksalad",[13]; 500 g ai/ha,100
same,"Plant response rating, Sedge, Umbrella",[14]; 500 g ai/ha,0
